In patent publication US20250213558A1, “T-TYPE CALCIUM CHANNEL MODULATORS COMPRISING A PIPERAZINE OR 1,4-DIAZEPANE CORE AND METHODS OF USE THEREOF” (Praxis Precision Medicines, Inc., priority 2022, published 2025):
Like-named read-outs stand apart in the source and are kept apart here.

What was measured:
absence seizures = details: childhood absence epilepsy, cited from earlier work
[1] = molecular target: T1, Human Cav3.1 calcium channel (Homo sapiens, UniProt O43497); assay: Human Cav3.1 calcium channel patch clamp assay (SyncroPatch 384PE; single point and IC50, voltage dependent block); type: cell-based; details: for % Inhibition (Single Point Data): patch clamp
T1 construct: expressed in transfected cells; host or cells: HEK-293 natClytin/TASK1+Cav3.1 cell line
Summary of the method: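 Automated whole-cell patch clamp at room temperature, cells held at −120 mV; 100 ms step to −20 mV (resting block), then 1600 ms at −65 mV and a second −20 mV step (voltage-dependent block), every 15 s. Peak currents averaged over last 3 sweeps; % inhibition relative to nickel-sensitive current.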

[2] = at 16 weeks, assessed by video-EEG recordings
[3] = Testing Conc 1.25, HEK-293 natClytin/TASK1+Cav3.1 cell line
[4] = voltage dependent block (VDB), HEK-293 natClytin/TASK1+Cav3.1 cell line, read-out: Cav3.1 IC50

T1 sequence (O43497 whole entry): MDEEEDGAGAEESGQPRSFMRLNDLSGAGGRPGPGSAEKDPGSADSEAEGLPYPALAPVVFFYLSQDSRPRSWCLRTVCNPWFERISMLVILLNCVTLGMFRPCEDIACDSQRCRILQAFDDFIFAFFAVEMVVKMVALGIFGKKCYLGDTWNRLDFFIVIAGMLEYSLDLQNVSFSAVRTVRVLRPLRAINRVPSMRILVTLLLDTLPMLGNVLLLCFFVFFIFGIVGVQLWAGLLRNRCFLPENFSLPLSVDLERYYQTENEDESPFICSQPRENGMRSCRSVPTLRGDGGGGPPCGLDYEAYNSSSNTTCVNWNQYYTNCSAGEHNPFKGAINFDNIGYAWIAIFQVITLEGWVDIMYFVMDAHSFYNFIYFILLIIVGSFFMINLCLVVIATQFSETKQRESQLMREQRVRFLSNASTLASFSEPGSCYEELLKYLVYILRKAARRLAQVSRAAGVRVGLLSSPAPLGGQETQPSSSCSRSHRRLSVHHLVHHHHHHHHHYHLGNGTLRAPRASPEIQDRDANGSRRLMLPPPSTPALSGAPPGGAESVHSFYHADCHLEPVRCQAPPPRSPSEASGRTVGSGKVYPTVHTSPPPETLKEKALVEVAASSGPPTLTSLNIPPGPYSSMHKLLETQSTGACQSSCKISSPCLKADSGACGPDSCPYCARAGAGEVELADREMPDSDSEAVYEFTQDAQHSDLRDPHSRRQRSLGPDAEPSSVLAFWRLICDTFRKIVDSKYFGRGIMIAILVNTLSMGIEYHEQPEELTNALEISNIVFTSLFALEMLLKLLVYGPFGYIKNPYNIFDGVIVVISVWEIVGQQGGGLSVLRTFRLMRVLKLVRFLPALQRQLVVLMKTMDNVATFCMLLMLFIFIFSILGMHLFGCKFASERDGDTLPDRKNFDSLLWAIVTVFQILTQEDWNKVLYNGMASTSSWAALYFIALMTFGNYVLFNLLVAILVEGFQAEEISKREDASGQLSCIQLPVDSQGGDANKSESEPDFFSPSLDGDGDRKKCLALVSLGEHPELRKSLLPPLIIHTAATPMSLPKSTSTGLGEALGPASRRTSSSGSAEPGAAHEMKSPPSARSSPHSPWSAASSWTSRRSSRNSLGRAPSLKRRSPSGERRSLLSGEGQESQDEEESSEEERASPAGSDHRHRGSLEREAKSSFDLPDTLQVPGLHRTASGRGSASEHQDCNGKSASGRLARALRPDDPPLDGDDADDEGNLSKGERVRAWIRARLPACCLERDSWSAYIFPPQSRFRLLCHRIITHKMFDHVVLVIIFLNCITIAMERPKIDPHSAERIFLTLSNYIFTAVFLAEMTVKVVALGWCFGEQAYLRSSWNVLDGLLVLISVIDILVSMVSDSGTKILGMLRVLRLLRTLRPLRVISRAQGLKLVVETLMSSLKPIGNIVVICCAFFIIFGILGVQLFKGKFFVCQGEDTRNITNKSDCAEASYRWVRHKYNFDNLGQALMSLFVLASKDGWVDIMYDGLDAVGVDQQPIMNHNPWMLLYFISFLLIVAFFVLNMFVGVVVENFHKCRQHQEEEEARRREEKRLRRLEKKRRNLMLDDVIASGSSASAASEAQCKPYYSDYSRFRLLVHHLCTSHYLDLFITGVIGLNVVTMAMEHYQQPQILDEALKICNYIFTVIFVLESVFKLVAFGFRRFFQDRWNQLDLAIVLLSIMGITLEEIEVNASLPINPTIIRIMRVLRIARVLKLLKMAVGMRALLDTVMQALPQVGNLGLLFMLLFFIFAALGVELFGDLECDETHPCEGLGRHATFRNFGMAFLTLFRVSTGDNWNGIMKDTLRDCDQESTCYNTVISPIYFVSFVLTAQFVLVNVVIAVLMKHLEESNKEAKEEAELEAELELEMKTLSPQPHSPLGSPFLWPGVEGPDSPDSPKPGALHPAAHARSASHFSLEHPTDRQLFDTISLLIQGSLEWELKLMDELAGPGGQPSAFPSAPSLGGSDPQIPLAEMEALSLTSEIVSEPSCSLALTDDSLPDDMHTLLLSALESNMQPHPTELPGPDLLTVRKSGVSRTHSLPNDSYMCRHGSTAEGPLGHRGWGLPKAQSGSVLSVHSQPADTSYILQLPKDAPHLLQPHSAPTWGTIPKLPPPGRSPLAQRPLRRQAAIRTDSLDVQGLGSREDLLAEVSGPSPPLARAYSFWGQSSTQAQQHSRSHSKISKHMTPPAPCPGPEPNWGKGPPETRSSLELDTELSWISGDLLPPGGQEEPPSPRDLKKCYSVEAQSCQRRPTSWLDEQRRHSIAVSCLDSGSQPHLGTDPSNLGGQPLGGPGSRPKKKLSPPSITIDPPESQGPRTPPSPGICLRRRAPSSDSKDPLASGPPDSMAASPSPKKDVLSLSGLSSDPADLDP

Compound | % Inhibition (Single Point Data) [1, 3] [%] | IC50 [1, 4] [nM] | other results
Nc1nnc(-c2cccc(Cl)c2Cl)c(N)n1 [Lamotrigine] |  |  | patients in whom the seizures were completely controlled (absence seizures; at 12 months): 21%; patients in whom the seizures were completely controlled (absence seizures; [2]): 29%
COc1cccc(NC(=O)CN2CC3CC2CN3CCNC(=O)C2(C(F)(F)F)CCC2)c1 (stereo not drawn) [Compound 236] | 65.449 | 536 | 
COc1cc(NC(=O)CN2C[C@@H]3C[C@H]2CN3CC(=O)NC(C)(C)C)ccc1Cl [Compound 337] | 95.366 | < 78.2 | 
O=C(CN1C2CCC1CN(Cc1nc3c(Cl)cc(F)cc3[nH]1)C2)N1CCC(F)(F)CC1 [Compound 81] | 100.06 |  | 
CC1(C(=O)NCCN2C3CC2CN(Cc2nc4c(Cl)cc(F)cc4[nH]2)C3)CCC1 [Compound 137] | 96.095 |  | IC50 [1]: < 78.2 nM
CC(C)(C)NC(=O)CN1C2CC1CN(CC(=O)Nc1cc(Cl)cc(Cl)c1)C2 [Compound 286] | 89.866 | 106 | 
CCC1(C)CC(=O)NC1=O (stereo not drawn) [ethosuximide] |  |  | patients in whom the seizures were completely controlled (absence seizures; at 12 months): 45%; patients in whom the seizures were completely controlled (absence seizures; [2]): 53%
CC(C)(CCN1C[C@@H]2C[C@H]1CN2CC(=O)NC12CC3CC(CC(C3)C1)C2)C(F)(F)F [Compound 329] | 59.633 |  | 
CC(C(=O)NC(C)(C)C)N1C2CC1CN(CC(=O)Nc1ccc(F)c(OC(F)F)c1)C2 (stereo not drawn) [Compound 254] | 93.503 | 115 | 
CC(C)(NC(=O)CN1C2CCC1CN(Cc1nc3c(Cl)cc(F)cc3[nH]1)C2)C(F)(F)F [Compound 76] | 100.39 |  | 
CC1(CN2C3CC2CN(Cc2nc4c(Cl)cc(F)cc4[nH]2)C3)CCOCC1 [Compound 106] | 52.218 | 1110 | 
CC(C)(C)NC(=O)CN1C2CC1CN(CC(=O)Nc1cc(F)ccc1Cl)C2 [Compound 213] | 27.718 |  | 
CC(C)(C)NC(=O)CN1CCN(CC(=O)Nc2cc(F)cc(Cl)c2)C2(COC2)C1 [Compound 44] | 50 | 1210 | 
CC(C(=O)Nc1ccc(F)c(Cl)c1)N1CC2CC(C1)N2CC(=O)NC1(C(F)(F)F)CC1 (stereo not drawn) [Compound 30] | 63.42 | 705 | 
CC(C)(C)NC(=O)CN1C[C@@H]2C[C@H]1CN2CC(=O)Nc1cc(F)c(F)c(Cl)c1 [Compound 348] |  | < 78.2 | 
CC(C)(C)NC(=O)CN1C2CCC1CN(CCc1nc3c(Cl)cc(F)cc3[nH]1)C2 [Compound 195] | 44.852 | 1150 | 
CC(C)(C)NC(=O)CN1CCN(CC(=O)NC23CC4CC(CC(C4)C2)C3)C(=O)C1 [Compound 33] |  |  | % Inhibition (Single Point Data) ([1]; Testing Conc 1, HEK-293 natClytin/TASK1+Cav3.1 cell line): 54.403%
O=C(CN1C2CCC1CN(Cc1nc3c(Cl)cc(F)cc3[nH]1)C2)N1CCC(O)CC1 [Compound 88] | 61.278 |  | 
O=C(CN1C[C@@H]2C[C@H]1CN2CC(=O)NC1(C(F)(F)F)CC1)Nc1ccc(F)c(OC(F)F)c1 [Compound 330] | 96.893 |  | 
CC1(C)CC(CN2C3CC2CN(CC(=O)NC24CC5CC(CC(C5)C2)C4)C3)CCO1 (stereo not drawn) [Compound 299] | 43.196 | 932 | 
CC1(OC(=O)CN2C3CC2CN(Cc2nc4c(Cl)cc(F)cc4[nH]2)C3)CC1 [Compound 140] | 79.539 | 283 | 
C[C@H](NC(=O)CN1CC2CC(C1)N2CC(=O)NC(C)(C)C)C12CC3CC(CC(C3)C1)C2 [Compound 325] | 22.59 | 2600 | 
CC(C)(C)NC(=O)CN1C[C@@H]2C[C@H]1CN2CC(=O)Nc1cc(Cl)cc(OC(F)F)c1 [Compound 294] | 101.56 | 58.7 | 
CC1(C)CC(CN2C3CCC2CN(Cc2nc4c(Cl)cc(F)cc4[nH]2)C3)CCO1 (stereo not drawn) [Compound 96] | 93.367 | 205 | 
COCC(C)(C)NC(=O)CN1C2CCC1CN(Cc1nc3c(Cl)cc(F)cc3[nH]1)C2 [Compound 80] | 96.659 |  | 
CC(C(=O)Nc1ccc(F)c(OC(F)F)c1)N1CC2CC(C1)N2CC(=O)NC1(C(F)(F)F)CC1 (stereo not drawn) [Compound 255] | 66.406 | 431 | 
COc1ccc(Cl)c2nc(CN3CC4CC(C3)N4CC(=O)NC(C)(C)C)[nH]c12 [Compound 206] | 95.576 | 156 | 
